Source: patent US7229987B2, “Multicyclic compounds for use as melanin concentrating hormone antagonists in the treatment of obesity and diabetes” (Eli Lilly and Company, priority 2002, dated 2007)

Row | Structure (SMILES) | melting point [°C]
1 | O=C(NCCN1CCCCC1)Nc1ccc(-c2cnc(CSCCOc3ccccc3)o2)cc1 [Example 252] | 84 to 87
2 | CN(C)CCNC(=O)Nc1ccc(-c2cnc(COCc3cc4ccccc4o3)o2)cc1 [Example 254, 1-{4-[2-(benzofuran-2-ylmethoxymethyl)-oxazol-5-yl]-phenyl}-3-(2-dimethylamino-ethyl)-urea] | 150 to 154
3 | O=C(NCCN1CCCC1)Nc1ccc(-c2cnc(COCc3cc4ccccc4o3)o2)cc1 [Example 255, 1-{4-[2-(Benzofuran-2-ylmethoxymethyl)-oxazol-5-yl]-phenyl}-3-(2-pyrrolidin-1-yl-ethyl)-urea] | 124 to 126
4 | O=C(NCCN1CCCCC1)Nc1ccc(-c2cnc(COCc3cc4ccccc4o3)o2)cc1 [Example 256, 1-{4-[2-(benzofuran-2-ylmethoxymethyl)-oxazol-5-yl]-phenyl}-3-(2-piperidin-1-yl-ethyl)-urea] | 102 to 104
5 | O=C1N(CCN2CCCC2)CCN1c1ccc(-c2nnc(CSCCOc3ccccc3)o2)cc1 [Example 257, 1-{4-[5-(2-phenoxy-ethylsulfanylmethyl)-[1,3,4]oxadiazol-2-yl]-phenyl}-3-(2-pyrrolidin-1-yl-ethyl)-imidazolidin-2-one] | 125 to 129
6 | CN(C)CCNc1ccc(-c2nnc(CSCCOc3ccccc3)o2)cn1 [Example 258, N,N-dimethyl-M-{5-[5-(2-phenoxy-ethylsulfanylmethyl)-[1,3,4]oxadiazol-2-yl]-pyridin-2-yl}-ethane-1,2-diamine] | 97 to 98
7 | CN(C)CCCNc1ccc(-c2nnc(CSCCOc3ccccc3)o2)cn1 [Example 259, N,N-Dimethyl-N′-{5-[5-(2-phenoxy-ethylsulfanylmethyl)-[1,3,4]oxadiazol-2-yl]-pyridin-2-yl}-propane-1,3-diamine] | 94 to 96
8 | O=C1CCN(CCCOc2ccc(-c3nnc(CSCCOc4ccccc4)o3)cc2)CC1 [Example 260, 1-(3-{4-[5-(2-Phenoxy-ethylsulfanylmethyl)-[1,3,4]oxadiazol-2-yl]-phenoxy}-propyl)-piperidin-4-one] | 55 to 57
9 | CC(C)N(CCCOc1ccc(-c2nnc(CSCCOc3ccccc3)o2)cc1)C(C)C [Example 261, diisopropyl-(3-{4-[5-(2-phenoxy-ethylsulfanylmethyl)-[1,3,4]oxadiazol-2-yl]-phenoxy}-propyl)-amine] | 30 to 33
10 | CC(C)N(CCCCOc1ccc(-c2nnc(CSCCOc3ccccc3)o2)cc1)C(C)C [Example 262, diisopropyl-(4-{4-[5-(2-phenoxy-ethylsulfanylmethyl)-[1,3,4]oxadiazol-2-yl]-phenoxy}-butyl)-amine] | 42 to 44
11 | c1ccc(OCCSCc2nnc(-c3ccc(OCCCN4CCC4)cc3)o2)cc1 [Example 263, 2-[4-(3-azetidin-1-yl-propoxy)-phenyl]-5-(2-phenoxy-ethylsulfanylmethyl)-[1,3,4]oxadiazole] | 60
12 | N#CCCCOc1ccc(-c2nnc(CSCCOc3ccccc3)o2)cc1 [Example 264, 4-{4-[5-(2-phenoxy-ethylsulfanylmethyl)-[1,3,4]oxadiazol-2-yl]-phenoxy}-butyronitrile] | 67 to 68
13 | c1ccc(OCCSCc2ncc(-c3ccc(OCCN4CCCCCC4)cc3)o2)cc1 [Example 265, 1-(2-{4-[2-(2-phenoxy-ethylsulfanylmethyl)-oxazol-5-yl]-phenoxy}-ethyl)-azepane] | 35 to 38
14 | c1ccc(OCCSCc2ncc(-c3ccc(OCCCN4CCCCCC4)cc3)o2)cc1 [Example 266, 1-(3-{4-[2-(2-phenoxy-ethylsulfanylmethyl)-oxazol-5-yl]-phenoxy}-propyl)-azepane] | 32 to 35
15 | O=C(O)C(=O)O.c1ccc(OCCSCc2ncc(-c3ccc(OCCCN4CCCCCCC4)cc3)o2)cc1 [Example 267, 1-(3-{4-[2-(2-phenoxy-ethylsulfanylmethyl)-oxazol-5-yl]-phenoxy}-propyl)-azocane oxalic acid salt] | 89 to 94
16 | C(=C\c1ccc(-c2cnc(CSCCOc3ccccc3)o2)cc1)/CN1CCCC1 [Example 268, 2-(2-phenoxy-ethylsulfanylmethyl)-5-[4-(3-pyrrolidin-1-yl-propenyl)-phenyl]-oxazole] | 73 to 75
17 | CN(C)CCCOc1ccc(-c2nnc(Cc3ccc(Oc4ccccc4)cc3)o2)cc1.O=C(O)C(=O)O [Example 269, Dimethyl-(3-{4-[5-(4-phenoxy-benzyl)-[1,3,4]oxadiazol-2-yl]-phenoxy}-propyl)-amine, oxalic acid salt] | 156 to 158
18 | c1ccc2oc(Cc3nnc(-c4ccc(OCCCN5CCCCC5)cc4)o3)cc2c1 [Example 270, 1-{3-[4-(5-Benzofuran-2-yl-methyl-[1,3,4]oxadiazol-2-yl)-phenoxy]-propyl}-piperidine] | 76 to 79
19 | CN(C)CCCOc1ccc(-c2nnc(CSCCOc3ccc(OC(F)(F)F)cc3)o2)cc1 [Example 274, [3-(4-{5-[2-(4-trifluoromethoxy-phenoxy)-ethylsulfanylmethyl]-[1,3,4]oxadiazol-2-yl}-phenoxy)-propyl]-dimethyl-amine] | 92.5 to 93.5
20 | CN(C)CCCOc1ccc(-c2nnc(CSCCOc3ccccc3OC(F)(F)F)o2)cc1 [Example 275, [3-(4-{5-[2-(2-trifluoromethoxy-phenoxy)-ethylsulfanylmethyl]-[1,3,4]oxadiazol-2-yl}-phenoxy)-propyl]-dimethyl-amine] | 55 to 55.5
21 | CN(C)CCCOc1ccc(-c2nnc(CSCCOc3cccc(OC(F)(F)F)c3)o2)cc1 [Example 276, [3-(4-{5-[2-(3-trifluoromethoxy-phenoxy)-ethylsulfanylmethyl]-[1,3,4]oxadiazol-2-yl}-phenoxy)-propyl]-dimethyl-amine] | 46 to 46.5
22 | COc1ccc(OCCSCc2nnc(-c3ccc(OCCCN(C)C)cc3)o2)cc1 [Example 277, [3-(4-{5-[2-(4-methoxy-phenoxy)-ethylsulfanylmethyl]-[1,3,4]oxadiazol-2-yl}-phenoxy)-propyl]-dimethyl-amine] | 77.5 to 78
23 | CN(C)CCCOc1ccc(-c2nnc(CSCCOc3cccc4ccccc34)o2)cc1 [Example 278, [3-(4-{5-[2-(1-naphthoxy)-ethylsulfanylmethyl]-[1,3,4]oxadiazol-2-yl}-phenoxy)-propyl]-dimethyl-amine] | 101 to 102
24 | CN(C)CCCOc1ccc(-c2nnc(CSCCOc3ccc4ccccc4c3)o2)cc1 [Example 279, [3-(4-{5-[2-(2-naphthoxy)-ethylsulfanylmethyl]-[1,3,4]oxadiazol-2-yl}-phenoxy)-propyl]-dimethyl-amine] | 97 to 98
25 | CN(C)CCCOc1ccc(-c2nnc(CSCCOC(C)(C)C)o2)cc1 [Example 280, (3-{4-[5-(2-tert-butoxy-ethylsulfanylmethyl)-[1,3,4]oxadiazol-2-yl]-phenoxy}-propyl)-dimethyl-amine] | 84.5 to 85.5
26 | CN(C)CCCOc1c(Cl)cc(-c2nnc(CSCCOc3ccccc3)o2)cc1Cl.O=C(O)/C=C/C(=O)O [Example 283, (3-{2,6-dichloro-4-[5-(2-phenoxy-ethylsulfanylmethyl)-[1,3,4]oxadiazol-2-yl]-phenoxy}-propyl)-dimethyl-amine; fumaric acid salt] | 95 to 99
